Measurements published in ChEMBL document CHEMBL5154647, “Discovery of seneciobipyrrolidine derivatives for the amelioration of glucose homeostasis disorders through 4E-BP1/Akt/AMPK signaling activation” (Eur J Med Chem, 2022).
One block for each molecule: values may come before it. Calls of active or inactive are those of the source. No cut-off for these calls is given here.

Assays:
[1] = test system: L6; experiment: Induction of glucose uptake in rat L6 myoblasts at 20 uM measured after 2 hrs by liquid scintillation counter; format: functional
[2] = test system: L6; experiment: Induction of glucose uptake in rat L6 myoblasts preincubated for 3 hrs with compound and in presence of 2-deoxyglucose measured after 1 hrs by DNTB reagent based colorimetric assay; format: functional, cell-based
[3] = test system: L6; experiment: Induction of glucose uptake in rat L6 myoblasts assessed as 2-DG concentration at 25 uM preincubated for 3 hrs and in presence of 2-deoxyglucose measured after 1 hrs by DNTB reagent based colorimetric assay; format: functional; conditions: time 4 hrs
[4] = Half life in Sprague-Dawley rat at 5 mg/kg, iv measured upto 24 hrs by LC/MS/MS analysis; format: ADME, organism-based; conditions: in vivo
[5] = Cmax in Sprague-Dawley rat at 5 mg/kg, iv measured upto 24 hrs by LC/MS/MS analysis; format: ADME, organism-based; set-up: dose 5 mg/kg, time < 24 hrs, route iv; conditions: in vivo
[6] = AUC (0 to t) in Sprague-Dawley rat at 5 mg/kg, iv measured upto 24 hrs by LC/MS/MS analysis; format: ADME, organism-based; set-up: dose 5 mg/kg, time < 24 hrs, route iv; conditions: in vivo
[7] = Tmax in Sprague-Dawley rat at 20 mg/kg, po measured upto 10 hrs by LC/MS/MS analysis; format: ADME, organism-based; conditions: in vivo
[8] = Half life in Sprague-Dawley rat at 20 mg/kg, po measured upto 10 hrs by LC/MS/MS analysis; format: ADME, organism-based; conditions: in vivo
[9] = Cmax in Sprague-Dawley rat at 20 mg/kg, po measured upto 10 hrs by LC/MS/MS analysis; format: ADME, organism-based; set-up: time < 10 hrs, dose 20 mg/kg, route po; conditions: in vivo
[10] = AUC (0 to t) in Sprague-Dawley rat at 20 mg/kg, po measured upto 10 hrs by LC/MS/MS analysis; format: ADME, organism-based; set-up: time < 10 hrs, dose 20 mg/kg, route po; conditions: in vivo
[11] = Oral bioavailability in Sprague-Dawley rat at 20 mg/kg measured upto 10 hrs by LC/MS/MS analysis; format: ADME, organism-based; conditions: in vivo
[12] = test system: L6; experiment: Activation of Akt in rat L6 myoblasts assessed as increase in AKT phosphorylation at Ser473 at 0.1 to 25 uM by western blot analysis; format: cell-based; conditions: filed as activator, dose 0.1-25 µM, DDE = dose-dependent effect
[13] = molecular target: T1, AMP-activated protein kinase, AMPK (Rattus norvegicus) (UniProt P54645+Q09137+P80386+P80385+Q9QZH4+Q6V7V4+D4A7E4); experiment: Activation of AMPK in rat L6 myoblasts assessed as increase in AMPK phosphorylation at Thr172 at 0.1 to 25 uM by western blot analysis; format: cell-based; conditions: filed as activator, dose 0.1-25 µM, DDE = dose-dependent effect
[14] = test system: Mus musculus; experiment: Antidiabetic activity in db/db mouse assessed as reduction in random blood glucose level at 100 mg/kg, po bid measured up to 21 days; format: functional; set-up: scale not given: the % may be the effect or the level left; conditions: time <= 21 day
[15] = test system: Mus musculus; experiment: Antidiabetic activity in db/db mouse assessed as reduction in random blood glucose level at 75 mg/kg, po bid measured up to 21 days; format: functional; set-up: scale not given: the % may be the effect or the level left; conditions: time <= 21 day
[16] = test system: Mus musculus; experiment: Antidiabetic activity in db/db mouse assessed as reduction in fasting blood glucose level at 100 mg/kg, po bid measured up to 21 days; format: functional; set-up: scale not given: the % may be the effect or the level left; conditions: time <= 21 day
[17] = test system: Mus musculus; experiment: Antidiabetic activity in db/db mouse assessed as reduction in fasting blood glucose level at 75 mg/kg, po bid measured up to 21 days; format: functional; set-up: scale not given: the % may be the effect or the level left; conditions: time <= 21 day
[18] = test system: Mus musculus; experiment: Antidiabetic activity in db/db mouse assessed as reduction in blood glucose level at 100 mg/kg, po bid measured after 6 hrs; format: functional; set-up: scale not given: the % may be the effect or the level left
[19] = test system: Mus musculus; experiment: Improvement in glucose tolerance in db/db mouse assessed as reduction in blood glucose level at 300 mg/kg, po measured after 20 days; format: functional, organism-based; conditions: time 20.0 day
[20] = test system: Mus musculus; experiment: Improvement in glucose tolerance in db/db mouse assessed as reduction in blood glucose level at 100 mg/kg, po measured after 20 days; format: functional, organism-based; conditions: time 20.0 day
[21] = Toxicity in db/db mouse assessed as decrease in body weight at 100 mg/kg, po administered for 21 days; format: organism-based; conditions: in vivo, 504 h, time 21 day
[22] = Toxicity in db/db mouse assessed as increase in body weight at 75 mg/kg, po administered for 21 days; format: organism-based; conditions: in vivo, 504 h, time 21 day
[23] = Toxicity in db/db mouse assessed as reduction in triglyceride at 75 mg/kg, po administered for 21 days; format: organism-based; conditions: in vivo, 504 h, time 21 day
[24] = Toxicity in db/db mouse assessed as reduction in triglyceride at 100 mg/kg, po administered for 21 days; format: organism-based; conditions: in vivo, 504 h, time 21 day
[25] = Toxicity in db/db mouse liver assessed as reduction of fat accumulation in liver at 100 mg/kg, po bid administered for 21 days by H and E staining based microscopic analysis; format: organism-based; conditions: in vivo, 504 h, time 21 day
[26] = Toxicity in db/db mouse assessed as effect on muscle tissue morphology at 100 mg/kg, po bid administered for 21 days by H and E staining based microscopic analysis; format: organism-based; conditions: in vivo, 504 h, time 21 day
[27] = test system: L6; experiment: Time dependent activation of Akt in rat L6 myoblasts assessed as increase in AKT phosphorylation at Ser473 at 10 to 180 min by western blot analysis; format: cell-based; conditions: filed as activator, time 10-180 min, TDE = time-dependent effect
[28] = molecular target: Eukaryotic translation initiation factor 4E-binding protein 1 (Rattus norvegicus) (UniProt Q62622); experiment: Activation of 4E-BP1 in rat L6 myoblasts assessed as increase in 4E-BP1 protein level at 0.1 to 25 uM by western blot analysis; format: cell-based; conditions: filed as activator, dose 0.1-25 µM, DDE = dose-dependent effect
[29] = molecular target: T1, AMP-activated protein kinase, AMPK (Rattus norvegicus); experiment: Time dependent activation of AMPK in rat L6 myoblasts assessed as increase in AMPK phosphorylation at Thr172 at 10 to 180 min by western blot analysis; format: cell-based; conditions: filed as activator, time 10-180 min, TDE = time-dependent effect
[30] = molecular target: Eukaryotic translation initiation factor 4E-binding protein 1 (Rattus norvegicus) (UniProt Q62622); experiment: Time dependent activation of 4E-BP1 in rat L6 myoblasts assessed as increase in 4E-BP1 protein level at 10 to 180 min by western blot analysis; format: cell-based; conditions: filed as activator, time 10-180 min, TDE = time-dependent effect
[31] = test system: L6; experiment: Activation of Akt in rat L6 myoblasts assessed as increase in Akt protein level at 25 uM measured after 30 mins by western blot analysis; format: cell-based; conditions: filed as activator
[32] = molecular target: T1, AMP-activated protein kinase, AMPK (Rattus norvegicus); experiment: Activation of AMPK in rat L6 myoblasts assessed as increase in AMPK protein level at 25 uM measured after 30 mins by western blot analysis; format: cell-based; conditions: filed as activator
[33] = molecular target: Eukaryotic translation initiation factor 4E-binding protein 1 (Rattus norvegicus) (UniProt Q62622); experiment: Activation of 4E-BP1 in rat L6 myoblasts assessed as increase in 4E-BP1 protein level at 25 uM measured after 30 mins by western blot analysis; format: cell-based; conditions: filed as activator
[34] = test system: L6; experiment: Activation of Akt in rat L6 myoblasts assessed as increase in AKT phosphorylation at Ser473 at 25 uM measured after 30 mins by western blot analysis; format: cell-based; conditions: filed as activator
[35] = molecular target: T1, AMP-activated protein kinase, AMPK (Rattus norvegicus); experiment: Activation of AMPK in rat L6 myoblasts assessed as increase in AMPK phosphorylation at Thr172 at 25 uM measured after 30 mins by western blot analysis; format: cell-based; conditions: filed as activator
[36] = Toxicity in db/db mouse assessed as reduction in total cholesterol at 75 to 100 mg/kg, po administered for 21 days; format: organism-based; conditions: in vivo, 504 h, dose 75-100 mg/kg, time 21 day
[37] = Toxicity in db/db mouse assessed as effect on pancreas morphology at 100 mg/kg, po bid administered for 21 days by H and E staining based microscopic analysis; format: organism-based; conditions: in vivo, 504 h, time 21 day
[38] = test system: Liver; experiment: Effect on 4E-BP1 in db/db mouse liver assessed as increase in 4E-BP1 protein level at 100 mg/kg, po bid administered for 21 days by immunohistochemical staining analysis; format: functional, organism-based; conditions: time 21.0 day
[39] = test system: Muscle tissue; experiment: Effect on 4E-BP1 in db/db mouse muscle tissue assessed as increase in 4E-BP1 protein level at 100 mg/kg, po bid administered for 21 days by immunohistochemical staining analysis; format: functional, organism-based; conditions: time 21.0 day
[40] = test system: Pancreas; experiment: Effect on 4E-BP1 in db/db mouse pancreas assessed as increase in 4E-BP1 protein level at 100 mg/kg, po bid administered for 21 days by immunohistochemical staining analysis; format: functional, organism-based; conditions: time 21.0 day
[41] = test system: Mus musculus; experiment: Antidiabetic activity in db/db mouse assessed as reduction in random blood glucose level at 300 mg/kg, po bid measured up to 21 days; format: functional; set-up: scale not given: the % may be the effect or the level left; conditions: time <= 21 day
[42] = test system: Mus musculus; experiment: Antidiabetic activity in db/db mouse assessed as reduction in fasting blood glucose level at 300 mg/kg, po bid measured up to 21 days; format: functional; set-up: scale not given: the % may be the effect or the level left; conditions: time <= 21 day
[43] = test system: Mus musculus; experiment: Antidiabetic activity in db/db mouse assessed as reduction in blood glucose level at 300 mg/kg, po bid measured after 6 hrs; format: functional; set-up: scale not given: the % may be the effect or the level left
[44] = Toxicity in db/db mouse assessed as increase in body weight at 300 mg/kg, po administered for 21 days; format: organism-based; conditions: in vivo, 504 h, time 21 day
[45] = Toxicity in db/db mouse assessed as reduction in triglyceride at 300 mg/kg, po administered for 21 days; format: organism-based; conditions: in vivo, 504 h, time 21 day
[46] = Toxicity in db/db mouse assessed as reduction in total cholesterol at 300 mg/kg, po administered for 21 days; format: organism-based; conditions: in vivo, 504 h, time 21 day
[47] = Toxicity in db/db mouse liver assessed as reduction of fat accumulation in liver at 300 mg/kg, po bid administered for 21 days by H and E staining based microscopic analysis; format: organism-based; conditions: in vivo, 504 h, time 21 day
[48] = Toxicity in db/db mouse assessed as effect on muscle tissue morphology at 300 mg/kg, po bid administered for 21 days by H and E staining based microscopic analysis; format: organism-based; conditions: in vivo, 504 h, time 21 day
[49] = Toxicity in db/db mouse assessed as effect on pancreas morphology at 300 mg/kg, po bid administered for 21 days by H and E staining based microscopic analysis; format: organism-based; conditions: in vivo, 504 h, time 21 day

Sequence of Eukaryotic translation initiation factor 4E-binding protein 1 (Rattus norvegicus) (Q62622 whole entry): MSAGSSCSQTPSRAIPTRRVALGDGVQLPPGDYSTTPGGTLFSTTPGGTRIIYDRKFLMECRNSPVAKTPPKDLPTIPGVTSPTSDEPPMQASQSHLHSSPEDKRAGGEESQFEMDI

- half-life [4]: 3.9 h
- Cmax [5]: 542 ng/mL
- AUC(0-t) at 24 h [6]: 588 ng·h/mL
- Tmax [7]: 0.5 h
- half-life [8]: 12.4 h
- Cmax [9]: 141 ng/mL
- AUC(0-t) at 10 h [10]: 469 ng·h/mL
- bioavailability [11]: 19.9%
- Activity [13]: Dde
- Activity [28]: Dde
- Activity [29]: Tde
- Activity [30]: Tde
- Activity [32]: Active
- fold change (FC) [33]: 2
- Activity [35]: Active
Structure (SMILES): COc1ccc2c(c1)[C@H]1[C@H](CCN1CCc1ccc(Cl)cc1)[C@H]1CCCN21 (racemic)
- Activity [1]: 215.6%
- EC50 [2]: 2700 nM
- Activity [3]: 81.9 pmol/µL
- Activity [12]: Dde
- Activity [14]: 79%
- Activity [15]: 77.2%
- Activity [16]: 62.1%
- Activity [17]: 65.5%
- Activity [18]: 38.1%
- Activity [19]: Active
- Activity [20]: Active
- Activity [21]: Toxic
- Activity [22]: Non-Toxic
- Activity [23]: Toxic
- Activity [24]: Toxic
- Activity [25]: Toxic
- Activity [26]: Non-Toxic
- Activity [27]: Tde
- Activity [31]: Active
- Activity [34]: Active
- Activity [36]: Toxic
- Activity [37]: Non-Toxic
- Activity [38]: Active
- Activity [39]: Active
- Activity [40]: Active

Structure (SMILES): CN(C)C(=N)NC(=N)N [METFORMIN]
- Activity [41]: 40.3%
- Activity [42]: 26.6%
- Activity [43]: 49.7%
- Activity [44]: Non-Toxic
- Activity [45]: Toxic
- Activity [46]: Toxic
- Activity [47]: Toxic
- Activity [48]: Non-Toxic
- Activity [49]: Non-Toxic
